Type in all cases: cell-based
One experiment has as its system Botrytis cinerea T4.
The subject of experiment [1] is Zymoseptoria tritici IPO323.
In experiment [2] the test system is Fusarium graminearum PH-1. The following applies: for MIC, in-vitro antifungal activity against F. graminearum: F. graminearum PH-1, 48 hours; for F. graminearum PH-1 MIC Day1: MIC Day 1, 96-well plate, resazurin cell viability. For orientation: The colour change of resazurin is a common sign of viable cells or microbes.

No end group written: not given here.

Regarding “PD96.1.1: Thlaspi arvense wild-type defensin SEQ ID NO: 603 with N-terminal alanine, expressed in Pichia pastoris (RMCESKSHEFKGFCTKWRICRDVCITEGFTDGGCHGVLRHCVCKKPCLLSN; N-terminal alanine; Thlaspi arvense)”, the “B. cinerea T4 MIC Day1” value in the experiment with Botrytis cinerea T4 was determined as 6 µM. In experiment [1], the “Z. tritici IPO323 MIC Day 1” value is 2.5 µM, the “Z. tritici IPO323 MIC Day 7” value turned out to be 10 µM and the “Z. tritici IPO323 MIC Day 14” value was over 12 µM. In addition, in experiment [2], the “MIC, in-vitro antifungal activity against F. graminearum” value stood at 0.75 µM and the “F. graminearum PH-1 MIC Day1” value was 0.75 µM.
Turning to “PD100.1.1: Prunus armeniaca wild-type defensin SEQ ID NO: 620 with N-terminal alanine, expressed in Pichia pastoris (QRGCKQASKSMTTCTAHPECDKKCKGEKAKMGLCRADGPKGKKCWCYMC; N-terminal alanine added; listed as Prunus armeniaca)”, the “B. cinerea T4 MIC Day1” value in the experiment on Botrytis cinerea T4 amounted to 6 µM. For the same substance, in experiment [1], the “Z. tritici IPO323 MIC Day 1” value was determined as 1 µM, the “Z. tritici IPO323 MIC Day 7” value is 4 µM and the “Z. tritici IPO323 MIC Day 14” value is 8 µM. Also, the “F. graminearum PH-1 MIC Day1” value in experiment [2] stood at 6 µM.
Turning to “PD102.1.1: Cajanus cajan wild-type defensin SEQ ID NO: 628 with N-terminal alanine, expressed in Pichia pastoris (AVCSKPSTYFFGPCVRRSTCRRACSHENYPDGKCSRFLGKCICYKPCTT; cysteine pairing not given here; also: N-terminal alanine added, unclear whether it is the first A of the chain)”, in the experiment with Botrytis cinerea T4, the “B. cinerea T4 MIC Day1” value is 1.25 µM. Also, in experiment [1], the “Z. tritici IPO323 MIC Day 1” value worked out at 1 µM, the “Z. tritici IPO323 MIC Day 7” value was found to be 1.5 µM and the “Z. tritici IPO323 MIC Day 14” value was 2.5 µM. In addition, in experiment [2], the “F. graminearum PH-1 MIC Day1” value worked out at 1.5 µM.
Turning to “PD103.1.1: Eucalyptus grandis wild-type defensin SEQ ID NO: 633 with N-terminal alanine, expressed in Pichia pastoris (ATCRKPSMYFSGACFSRTNCQKACNREDWPNGKCLVGFKCFCQRPC; cysteine pairing not given here; also: N-terminal alanine added, unclear whether it is the first A of the chain; listed as Eucalyptus grandis)”, in the experiment on Botrytis cinerea T4, the “B. cinerea T4 MIC Day1” value worked out at 1.75 µM. In addition, in experiment [1], the “Z. tritici IPO323 MIC Day 1” value came to 1.25 µM, the “Z. tritici IPO323 MIC Day 7” value stood at 1.25 µM and the “Z. tritici IPO323 MIC Day 14” value was found to be 3 µM. Moreover, the “F. graminearum PH-1 MIC Day1” value in experiment [2] stood at 2.5 µM.
For the substance “PD104.1.1: Eucalyptus grandis wild-type defensin SEQ ID NO: 637 with N-terminal alanine, expressed in Pichia pastoris (AICKKPSKFFKGACGRDADCEKACDQENWPGGVCVPFLRCECQRSC; cysteine pairing not given here; also: N-terminal alanine added, unclear whether it is the first A of the chain; listed as Eucalyptus grandis)”, the “B. cinerea T4 MIC Day1” value with Botrytis cinerea T4 was over 12 µM. Further, in experiment [1], the “Z. tritici IPO323 MIC Day 1” value is over 12 µM, the “Z. tritici IPO323 MIC Day 7” value was over 12 µM and the “Z. tritici IPO323 MIC Day 14” value was over 12 µM. In experiment [2], the “F. graminearum PH-1 MIC Day1” value is over 12 µM.
For “PD106.1.1: Eucalyptus grandis wild-type defensin SEQ ID NO: 645 with N-terminal alanine, expressed in Pichia pastoris (ANCAKPSKFYRGPCFNSISVKPCTQRCSQENWPIGVCTKDLRCECQRPC; cysteine pairing not given here; also: N-terminal alanine added, unclear whether it is the first A of the chain; listed as Eucalyptus grandis)”, the “B. cinerea T4 MIC Day1” value with Botrytis cinerea T4 worked out at 1 µM. In the experiment on Botrytis cinerea T4 (48 hours), the “MIC, in-vitro antifungal activity against B. cinerea” value amounted to 1 µM. In addition, in experiment [1], the “Z. tritici IPO323 MIC Day 1” value came out at 0.375 µM, the “Z. tritici IPO323 MIC Day 7” value was found to be 1.5 µM and the “Z. tritici IPO323 MIC Day 14” value was determined as 2.5 µM. Moreover, in experiment [2], the “MIC, in-vitro antifungal activity against F. graminearum” value worked out at 0.75 µM and the “F. graminearum PH-1 MIC Day1” value turned out to be 0.75 µM.
As to “PD108.1.1: Fragaria x anannasa wild-type defensin SEQ ID NO: 653 with N-terminal alanine, expressed in Pichia pastoris (KTCESPSAKFEGPCIMGSNCALTCQKEGHDGGFCRDFWLPKCFCTKPC; N-terminal alanine added; Fragaria X ananassa)”, in the experiment with Botrytis cinerea T4, the “B. cinerea T4 MIC Day1” value is over 12 µM. In experiment [1], the “Z. tritici IPO323 MIC Day 1” value is over 12 µM, the “Z. tritici IPO323 MIC Day 7” value was over 12 µM and the “Z. tritici IPO323 MIC Day 14” value was over 12 µM. Further, in experiment [2], the “F. graminearum PH-1 MIC Day1” value is over 12 µM.
Regarding “PD113.1.1: Gossypium hirsutum wild-type defensin SEQ ID NO: 674 with N-terminal alanine, expressed in Pichia pastoris (GPTIVGGRKCKSPSKKFNGMCMNHVNCATVCQTESHEDGKCEGFYRRCICIKPCF; N-terminal alanine added; listed as Gossypium hirsutum)”, the “B. cinerea T4 MIC Day1” value in the experiment on Botrytis cinerea T4 was 6 µM. Moreover, in experiment [1], the “Z. tritici IPO323 MIC Day 1” value is 4 µM, the “Z. tritici IPO323 MIC Day 7” value came to 12 µM and the “Z. tritici IPO323 MIC Day 14” value is over 12 µM. Also, the “F. graminearum PH-1 MIC Day1” value in experiment [2] turned out to be 6 µM.
On to “PD115.1.1: Lupinus albus wild-type defensin SEQ ID NO: 683 with N-terminal alanine, expressed in Pichia pastoris (NNCKYESNKFHGVCLSDTNCESVCQTEGFPFGKCDGVLPRTCVCKKPC; N-terminal alanine added; listed as Lupinus albus)”, for which, in the experiment on Botrytis cinerea T4, the “B. cinerea T4 MIC Day1” value is over 12 µM. For the same substance, in experiment [1], the “Z. tritici IPO323 MIC Day 1” value was over 12 µM, the “Z. tritici IPO323 MIC Day 7” value was over 12 µM and the “Z. tritici IPO323 MIC Day 14” value was over 12 µM. Also, the “F. graminearum PH-1 MIC Day1” value in experiment [2] was over 12 µM.
On to “PD117.1.1: Manihot esculenta wild-type defensin SEQ ID NO: 692 with N-terminal alanine, expressed in Pichia pastoris (RICVKPEPLAHCTETICTQFCIRKYGPPPGTVGKCNLPPGFCTCYHNC; N-terminal alanine added; listed as Manihot esculenta)”, for which, in the experiment on Botrytis cinerea T4, the “B. cinerea T4 MIC Day1” value is over 12 µM. Also, in experiment [1], the “Z. tritici IPO323 MIC Day 1” value was over 12 µM, the “Z. tritici IPO323 MIC Day 7” value is over 12 µM and the “Z. tritici IPO323 MIC Day 14” value is over 12 µM. The “F. graminearum PH-1 MIC Day1” value in experiment [2] is over 12 µM.
On to “PD118.1.1: Malus domestica wild-type defensin SEQ ID NO: 697 with N-terminal alanine, expressed in Pichia pastoris (KICEFPSTLFKGLCFSSNNCKHTCRKEQFTRGKCSLLTRTCMCTKKC; N-terminal alanine added; listed as Malus domestica)”, for which the “B. cinerea T4 MIC Day1” value in the experiment on Botrytis cinerea T4 worked out at 1.5 µM. In experiment [1], the “Z. tritici IPO323 MIC Day 1” value was 1.5 µM, the “Z. tritici IPO323 MIC Day 7” value came to 2 µM and the “Z. tritici IPO323 MIC Day 14” value came to 3 µM. Besides, the “F. graminearum PH-1 MIC Day1” value in experiment [2] worked out at 1.5 µM.
Take “PD119.1.1: Setaria italica wild-type defensin SEQ ID NO: 702 with N-terminal alanine, expressed in Pichia pastoris (RHCLSQSHTFKGLCFSSENCASVCKSEKFPGGQCQMHGASRKCFCKVVC; N-terminal alanine added; listed as Setaria italica)”: in the experiment on Botrytis cinerea T4, the “B. cinerea T4 MIC Day1” value came to 4.5 µM. In addition, in experiment [1], the “Z. tritici IPO323 MIC Day 1” value was determined as 2.5 µM, the “Z. tritici IPO323 MIC Day 7” value turned out to be 6 µM and the “Z. tritici IPO323 MIC Day 14” value was 12 µM. In addition, in experiment [2], the “F. graminearum PH-1 MIC Day1” value was 1.5 µM.
Taken in the same sequence, the figures for “PD121.1.1: Setaria italica wild-type defensin SEQ ID NO: 711 with N-terminal alanine, expressed in Pichia pastoris (RHCLSQSHHFKGLCLSSSNCANVCRVERFPDGECQTTAGTRKCFCKRIC; N-terminal alanine added; listed as Setaria italica)” were 2 µM, 1 µM, 4 µM, 5 µM and 1.5 µM.
For “PD123.1.1: Striga asiatica wild-type defensin SEQ ID NO: 719 with N-terminal alanine, expressed in Pichia pastoris (RKCESKSQQFKGLCFIKANCAAVCRTEGFHSGHCRGFRRRCYCTKHC; N-terminal alanine added; listed as Striga asiatica)”, the “B. cinerea T4 MIC Day1” value in the experiment with Botrytis cinerea T4 turned out to be 6 µM. Moreover, in experiment [1], the “Z. tritici IPO323 MIC Day 1” value worked out at 3 µM, the “Z. tritici IPO323 MIC Day 7” value turned out to be 5 µM and the “Z. tritici IPO323 MIC Day 14” value was 10 µM. For the same substance, the “F. graminearum PH-1 MIC Day1” value in experiment [2] was found to be 6 µM.
Consider “PD124.1.1: Rubus argutus wild-type defensin SEQ ID NO: 723 with N-terminal alanine, expressed in Pichia pastoris (RICEVPSKTFIGLCFKDTNCIVRCRSEGYGYGKCSHFRRRCRCFKPCP; N-terminal alanine added; listed as Rubus argutus)”, for which the “B. cinerea T4 MIC Day1” value with Botrytis cinerea T4 amounted to 0.75 µM. In experiment [1], the “Z. tritici IPO323 MIC Day 1” value is 0.75 µM, the “Z. tritici IPO323 MIC Day 7” value came out at 3.25 µM and the “Z. tritici IPO323 MIC Day 14” value turned out to be 4 µM. Also, in experiment [2], the “F. graminearum PH-1 MIC Day1” value was 2 µM.
Take “PD125.1.1: wild-type defensin-like protein SEQ ID NO: 728 with N-terminal alanine, expressed in Pichia pastoris (VICPLESKRSKTWSGVCAQSKNCDKQCKTWERAKHGACHATYGKVLGVKACMHAGNK; N-terminal alanine added; listed as Prunus armeniaca)”: the “B. cinerea T4 MIC Day1” value in the experiment with Botrytis cinerea T4 is 10 µM. In experiment [1], the “Z. tritici IPO323 MIC Day 1” value was found to be 3 µM, the “Z. tritici IPO323 MIC Day 7” value came to 7 µM and the “Z. tritici IPO323 MIC Day 14” value is 9 µM. For the same substance, the “F. graminearum PH-1 MIC Day1” value in experiment [2] came to 8 µM.

Values taken from patent publication US20240239854A1, “ANTIMICROBIAL PEPTIDES AND MODIFICATIONS THEREOF” (Donald Danforth Plant Science Center, priority 2022, published 2024).
